{
  "source": "paper PMC6340882",
  "about": "“Targeting protein kinase CK2 and CDK4/6 pathways with a multi-kinase inhibitor ON108110 suppresses pro-survival signaling and growth in mantle cell lymphoma and T-acute lymphoblastic leukemia” (Oncotarget, 2018)",
  "key": {"[1]": {"system": "CEM, HBL-2, RS4-11 and Granta-519 cells", "test": "Apoptosis, Annexin V/DAPI staining", "assay_type": "cell-based, human", "settings": "0.5-2.0 μM, 24 hours post-treatment", "method": "Figure 5 Modulation of cell cycle expression and induction of apoptosis in ON 108110-treated MCL and T-ALL cell lines (A) CEM and Granta-519 cells were treated with either DMSO or increasing concentrations of ON108110 (0.5-2.0μM) for 24 hours. Cell cycle analysis was performed using propidium iodide staining. (B) CEM, HBL-2, RS4-11 and Granta-519 cells were treated with either DMSO (vehicle) or increasing concentrations of ON108110 (0.5-2.0 μM) for 24 hours and stained with Annexin V/DAPI (C) Graphical representation of apoptosis induced as shown in B. (D) Granta-519 cells were treated with increasing concentrations of ON108110 for 24 hours. Caspase activation and viability were measured using the Caspase Glo 3/7 and Cell Titer Blue assay kits, respectively. […]\nTo determine cell cycle distribution, 70% ethanol fixed cells were washed with phosphate buffered saline (PBS), resuspended in PBS and incubated with RNase and propidium iodide at 37°C for 20 min. DNA content was analyzed on a FACS Calibur (BD Immunocytometry Systems) and the data analyzed using Flowjo software (Treestar). Annexin V staining was measured using the FITC Annexin V Apoptosis Detection Kit I (BD Biosciences) according to the instructions of the manufacturer except that DAPI was substituted at a concentration of […] to measure DNA content."}, "[2]": {"system": "MOLT-4", "test": "Growth inhibition (GI50), Cell Titer Blue", "assay_type": "cell-based", "settings": "Homo sapiens; MOLT-4, Acute Lymphoblastic Leukemia; 96 hrs post-treatment", "method": "(§1) Cell lines were cultured in RPMI-1640 medium (Thermo Scientific) supplemented with 10% heat inactivated FBS and penicillin-streptomycin at 37°C under humidified conditions and 5% CO2. All cell lines tested negative for mycoplasma. […] Compounds were added 24 hrs post-plating at the indicated concentrations. Cell counts were determined from duplicate wells 96 hrs post-treatment using the Cell Titer Blue assay in conjunction with the GloMax plate reader (Promega)."}, "[3]": {"system": "HEL", "test": "Growth inhibition (GI50), Cell Titer Blue", "assay_type": "cell-based", "settings": "Homo sapiens, Erythroleukemia, 96 hrs post-treatment", "method": "as §1"}, "[4]": {"system": "BT-20", "test": "Growth inhibition (GI50), Cell Titer Blue", "assay_type": "cell-based", "settings": "Homo sapiens; BT-20, Breast Cancer; 96 hrs post-treatment", "method": "as §1"}, "[5]": {"system": "HBL2", "test": "Growth inhibition (GI50), Cell Titer Blue", "assay_type": "cell-based", "settings": "Homo sapiens; HBL2, Mantle Cell Lymphoma; 96 hrs post-treatment", "method": "as §1"}, "[6]": {"system": "CEM", "test": "Growth inhibition (GI50), Cell Titer Blue", "assay_type": "cell-based", "settings": "Homo sapiens, CCRF-CEM, Acute Lymphoblastic Leukemia, 96 hrs post-treatment", "method": "as §1"}, "[7]": {"system": "GRANTA-519", "test": "Growth inhibition (GI50), Cell Titer Blue", "assay_type": "cell-based", "settings": "Homo sapiens; GRANTA-519, Mantle Cell Lymphoma; 96 hrs post-treatment", "method": "as §1"}, "[8]": {"system": "22Rv1", "test": "Growth inhibition (GI50), Cell Titer Blue", "assay_type": "cell-based", "settings": "Homo sapiens; 22Rv1, Prostate Cancer; 96 hrs post-treatment", "method": "as §1"}, "[9]": {"system": "Z138C", "test": "Growth inhibition (GI50), Cell Titer Blue", "assay_type": "cell-based", "settings": "Homo sapiens, Mantle Cell Lymphoma, 96 hrs post-treatment", "method": "as §1"}, "[10]": {"system": "MiaPaca-2", "test": "Growth inhibition (GI50), Cell Titer Blue", "assay_type": "cell-based", "settings": "Homo sapiens, MIA PaCa-2; MiaPaca-2, Pancreatic Cancer; 96 hrs post-treatment", "method": "as §1"}, "[11]": {"system": "AsPc1", "test": "Growth inhibition (GI50), Cell Titer Blue", "assay_type": "cell-based", "settings": "Homo sapiens; AsPc1, Pancreatic Cancer; 96 hrs post-treatment", "method": "as §1"}, "[12]": {"system": "LnCap", "test": "Growth inhibition (GI50), Cell Titer Blue", "assay_type": "cell-based", "settings": "Homo sapiens, Prostate Cancer, 96 hrs post-treatment", "method": "as §1"}, "[13]": {"system": "JVM2", "test": "Growth inhibition (GI50), Cell Titer Blue", "assay_type": "cell-based", "settings": "Homo sapiens, JVM-2; JVM2, Mantle Cell Lymphoma; 96 hrs post-treatment", "method": "as §1"}, "[14]": {"system": "RS-4-11", "test": "Growth inhibition (GI50), Cell Titer Blue", "assay_type": "cell-based", "settings": "Homo sapiens, RS4-11; RS-4-11, Acute Lymphoblastic Leukemia; 96 hrs post-treatment", "method": "as §1"}, "[15]": {"system": "K562", "test": "Growth inhibition (GI50), Cell Titer Blue", "assay_type": "cell-based", "settings": "Homo sapiens; K562, Chronic Myeloid Leukemia; 96 hrs post-treatment", "method": "as §1"}, "[16]": {"system": "MCF-7", "test": "Growth inhibition (GI50), Cell Titer Blue", "assay_type": "cell-based", "settings": "Homo sapiens, MCF7; MCF-7, Breast Cancer; 96 hrs post-treatment", "method": "as §1"}, "[17]": {"test": "Growth inhibition (GI50), Cell Titer Blue", "assay_type": "cell-based, human", "settings": "normal human peripheral blood mononuclear cells (hPBMC); hPBMC, Normal Human Peripharal Mononuclear Cells; 96 hrs post-treatment", "method": "as §1\n(§2) Peripheral blood samples were obtained from patients at the Icahn School of Medicine at Mount Sinai with informed and written consent for tissue banking following a protocol approved by the Institutional Review Board (MSSM IRB#11-1669) and in accordance with the Declaration of Helsinki. Peripheral blood mononuclear cells were pelleted by low-speed centrifugation, resuspended in media composed of 90% fetal bovine serum (FBS) and 10% DMSO (Sigma), frozen slowly in the vapor phase of liquid nitrogen in multiple cryovials, and stored in liquid nitrogen."}, "[18]": {"system": "hPBMC", "test": "Growth inhibition (GI50), Cell Titer Blue", "assay_type": "cell-based, human", "settings": "normal human cells (Table 1)", "method": "as §1, §2"}},
  "data": [
    {"smiles": "CC(=O)Oc1ccc(/C=C2\\Sc3ccc(F)cc3NC2=O)cc1[N+](=O)[O-]", "note": "[ON108110]", "values": [
      {"measurement": "frequency of apoptotic cells (Annexin V)", "setting": "[1]", "result": "concentration-dependent increase in the frequency of apoptotic cells"},
      {"measurement": "GI50", "setting": "[2]", "result": 500, "unit": "nM"},
      {"measurement": "GI50", "setting": "[3]", "result": 900, "unit": "nM"},
      {"measurement": "GI50", "setting": "[4]", "result": 2500, "unit": "nM"},
      {"measurement": "GI50", "setting": "[5]", "result": 250, "unit": "nM"},
      {"measurement": "GI50", "setting": "[6]", "result": 180, "unit": "nM"},
      {"measurement": "GI50", "setting": "[7]", "result": 150, "unit": "nM"},
      {"measurement": "GI50", "setting": "[8]", "result": "> 5000", "unit": "nM"},
      {"measurement": "GI50", "setting": "[9]", "result": 600, "unit": "nM"},
      {"measurement": "GI50", "setting": "[10]", "result": 2600, "unit": "nM"},
      {"measurement": "GI50", "setting": "[11]", "result": 2800, "unit": "nM"},
      {"measurement": "GI50", "setting": "[12]", "result": "> 5000", "unit": "nM"},
      {"measurement": "GI50", "setting": "[13]", "result": 300, "unit": "nM"},
      {"measurement": "GI50", "setting": "[14]", "result": 240, "unit": "nM"},
      {"measurement": "GI50", "setting": "[15]", "result": 2200, "unit": "nM"},
      {"measurement": "GI50", "setting": "[16]", "result": 800, "unit": "nM"},
      {"measurement": "GI50 at 96 h", "setting": "[17]", "result": "> 5000", "unit": "nM"},
      {"measurement": "cytotoxicity towards normal human cells", "setting": "[18]", "result": "little or no cytotoxicity"}
    ]}
  ]
}
